In US6528492B1, “SINGLE-STEP PROCESS FOR PREPARING 7, 16-DEOXY-2-AZA-10-0-CLADINOSIL-12-0-DESOSAMINIL-4, 5-DIHYDROXY-6-ETHYL-3,5,9,11,13,15-HEXAMETHYLBICYCLE (11.2.1) HEXADECA-1(2)-EN-ONA AND OBTAINING A NEW FORM OF 9-DEOXO-9A-METHYL-9A-AZA-9A-HOMOERYTHROMYCIN A” (Instituto de Investigacion en Quimica Aplicada S.C., priority 2001, dated 2003):

Columns and labels:
[1] = as indicated by patent PCT/US87/0612; cited from earlier work
[2] = Moisture uptake on exposure to room conditions; format: physicochemical; conditions: exposed to room conditions, relative humidity average of 45%, ten days
From the text: In addition to its novel features, the physical form obtained has physical characteristics that make it useful in preparing pharmaceutical preparations, with significant advantages over the forms existing to date. […] In contrast, the anhydrous crystalline form obtained here, when exposed to room conditions, at an relative humidity average of 45%, for ten days, increases its moisture content by only 0.55%, while a reference sample of dihydrated azithromycin increased its moisture content by 1% in the same time.

[3] = Dissolution profile of 500 mg azithromycin tablets; format: physicochemical; conditions: total weight one gram, solvents and procedure similar to capsules in U.S. Pharmacopoeia 2000, page 186
Experimental: In order to test the performance of anhydrous crystalline azithromycin in producing pharmaceutical preparations, 500 mg azithromycin tablets were made with total weight of one gram. The dissolution profile of these tablets was determined, and compared with the dissolution profile of tablets made with the same preparation using dihydrated azithromycin. The used solvents, and the procedure followed, were similar to those indicated for capsules in U.S. Pharmacopoeia 2000, page 186. […] This property gives the anhydrous crystalline form reported herein significant practical advantages over the dihydrated forms, given that increased solubility of the pharmaceutical preparation generally implies greater bioavailabilty of the drug and in consequence increases its therapeutic effectiveness.

Compound	hygroscopicity [1]	increase of moisture content [2] [%]	dissolution values of tablets compared with tablets made with dihydrated azithromycin [3]
CCC1OC(=O)C(C)C(OC2CC(C)(OC)C(O)C(C)O2)C(C)C(OC2OC(C)CC(N(C)C)C2O)C(C)(O)CC(C)CN(C)C(C)C(O)C1(C)O (stereo not shown) [forms reported by Kobrehel et al., 9-deoxo-9a-methyl-9a-aza-9a-homoerythromycin A]	highly hygroscopes		
CCC1OC(=O)C(C)C(OC2CC(C)(OC)C(O)C(C)O2)C(C)C(OC2OC(C)CC(N(C)C)C2O)C(C)(O)CC(C)CN(C)C(C)C(O)C1(C)O (stereo not shown) [anhydrous crystalline form, 9-deoxo-9a-methyl-9a-aza-9a-homoerythromycin A]		0.55	significantly higher
CCC1OC(=O)C(C)C(OC2CC(C)(OC)C(O)C(C)O2)C(C)C(OC2OC(C)CC(N(C)C)C2O)C(C)(O)CC(C)CN(C)C(C)C(O)C1(C)O (stereo not shown) [dihydrated azithromycin, 9-deoxo-9a-methyl-9a-aza-9a-homoerythromycin A]		1	
